# Activity calls are given as the source filed them.
# Legend:
# [1] = target: T1, Histone-lysine N-methyltransferase NSD2 (Homo sapiens, UniProt O96028); type: biochemical
# T1 sequence (O96028 whole entry): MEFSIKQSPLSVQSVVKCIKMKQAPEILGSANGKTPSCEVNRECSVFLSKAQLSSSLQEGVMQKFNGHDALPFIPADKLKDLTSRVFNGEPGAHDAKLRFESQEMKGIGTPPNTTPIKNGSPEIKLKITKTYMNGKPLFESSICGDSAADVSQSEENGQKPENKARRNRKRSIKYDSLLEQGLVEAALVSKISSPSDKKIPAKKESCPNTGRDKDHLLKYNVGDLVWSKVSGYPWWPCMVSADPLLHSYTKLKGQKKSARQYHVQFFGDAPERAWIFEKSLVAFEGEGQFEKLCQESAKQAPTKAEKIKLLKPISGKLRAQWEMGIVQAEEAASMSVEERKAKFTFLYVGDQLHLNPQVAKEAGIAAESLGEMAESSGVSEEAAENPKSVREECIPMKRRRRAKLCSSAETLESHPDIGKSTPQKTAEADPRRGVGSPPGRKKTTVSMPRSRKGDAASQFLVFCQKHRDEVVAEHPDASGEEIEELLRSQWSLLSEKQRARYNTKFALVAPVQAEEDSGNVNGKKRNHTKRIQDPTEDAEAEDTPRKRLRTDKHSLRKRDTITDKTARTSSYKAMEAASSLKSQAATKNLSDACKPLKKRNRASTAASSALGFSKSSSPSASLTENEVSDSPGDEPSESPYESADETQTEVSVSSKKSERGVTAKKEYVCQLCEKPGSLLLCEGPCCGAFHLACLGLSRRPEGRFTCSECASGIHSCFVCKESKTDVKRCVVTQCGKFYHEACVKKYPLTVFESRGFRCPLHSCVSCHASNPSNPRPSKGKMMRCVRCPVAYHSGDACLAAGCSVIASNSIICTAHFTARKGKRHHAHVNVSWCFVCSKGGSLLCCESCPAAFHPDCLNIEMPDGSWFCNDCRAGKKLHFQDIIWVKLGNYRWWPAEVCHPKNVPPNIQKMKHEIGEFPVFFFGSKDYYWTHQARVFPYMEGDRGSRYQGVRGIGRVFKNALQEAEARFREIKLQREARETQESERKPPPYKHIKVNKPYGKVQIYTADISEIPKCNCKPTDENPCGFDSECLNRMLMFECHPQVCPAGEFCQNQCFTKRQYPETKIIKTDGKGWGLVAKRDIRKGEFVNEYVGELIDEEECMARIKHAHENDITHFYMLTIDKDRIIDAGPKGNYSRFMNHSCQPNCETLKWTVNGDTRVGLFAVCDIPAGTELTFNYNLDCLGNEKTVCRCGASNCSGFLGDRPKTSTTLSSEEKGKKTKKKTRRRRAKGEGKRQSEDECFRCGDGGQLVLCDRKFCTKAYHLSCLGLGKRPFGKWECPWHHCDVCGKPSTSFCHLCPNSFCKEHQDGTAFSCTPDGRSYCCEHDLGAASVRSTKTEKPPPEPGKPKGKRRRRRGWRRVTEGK
# Protein RecA = target: T2, Protein RecA (Mycobacterium tuberculosis, UniProt P9WHJ3); assay: Fluorescence Cell-Free Homogeneous Dose Retest to Identify Inhibitors of RecA-Intein Splicing Activity. [Related pubchem assays (depositor defined):AID2097, AID2223, AID489010, AID492950]; type: functional
# T2 sequence (P9WHJ3 whole entry): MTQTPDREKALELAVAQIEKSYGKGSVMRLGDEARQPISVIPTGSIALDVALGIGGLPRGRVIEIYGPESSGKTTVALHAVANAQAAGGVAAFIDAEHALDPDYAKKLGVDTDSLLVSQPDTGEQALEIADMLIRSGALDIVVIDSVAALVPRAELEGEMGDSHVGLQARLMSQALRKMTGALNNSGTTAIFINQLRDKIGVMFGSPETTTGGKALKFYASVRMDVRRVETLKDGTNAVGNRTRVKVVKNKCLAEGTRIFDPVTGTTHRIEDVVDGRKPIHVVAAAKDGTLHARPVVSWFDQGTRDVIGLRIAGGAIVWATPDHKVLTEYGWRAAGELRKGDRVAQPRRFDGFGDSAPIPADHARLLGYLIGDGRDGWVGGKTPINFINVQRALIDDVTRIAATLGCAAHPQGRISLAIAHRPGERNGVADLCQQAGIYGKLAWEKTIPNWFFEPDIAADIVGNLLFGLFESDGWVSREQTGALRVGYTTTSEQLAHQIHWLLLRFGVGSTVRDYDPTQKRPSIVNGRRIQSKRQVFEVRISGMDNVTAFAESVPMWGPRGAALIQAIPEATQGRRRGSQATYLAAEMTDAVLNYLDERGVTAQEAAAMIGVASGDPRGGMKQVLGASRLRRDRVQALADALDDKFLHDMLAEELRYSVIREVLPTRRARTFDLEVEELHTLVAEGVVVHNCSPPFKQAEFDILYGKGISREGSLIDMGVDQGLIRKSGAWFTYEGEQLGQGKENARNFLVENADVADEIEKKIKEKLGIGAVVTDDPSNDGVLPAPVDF
# [2] = target: T3, Heat shock factor protein 1 (Mus musculus, UniProt P38532); assay: enhancement of HSF1-driven luciferase signal – cell-based, NIH3T3, luminescence, dose retest, confirmation (AID 435004); type: functional;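 note: stress induced by proteasome inhibitor MG132 added 30 min after compound; luciferase reporter driven by HSF1 response element in NIH3T3 cells; actives raise luminescence as potentiators of the MG132 stress response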
# T3 sequence (P38532 whole entry): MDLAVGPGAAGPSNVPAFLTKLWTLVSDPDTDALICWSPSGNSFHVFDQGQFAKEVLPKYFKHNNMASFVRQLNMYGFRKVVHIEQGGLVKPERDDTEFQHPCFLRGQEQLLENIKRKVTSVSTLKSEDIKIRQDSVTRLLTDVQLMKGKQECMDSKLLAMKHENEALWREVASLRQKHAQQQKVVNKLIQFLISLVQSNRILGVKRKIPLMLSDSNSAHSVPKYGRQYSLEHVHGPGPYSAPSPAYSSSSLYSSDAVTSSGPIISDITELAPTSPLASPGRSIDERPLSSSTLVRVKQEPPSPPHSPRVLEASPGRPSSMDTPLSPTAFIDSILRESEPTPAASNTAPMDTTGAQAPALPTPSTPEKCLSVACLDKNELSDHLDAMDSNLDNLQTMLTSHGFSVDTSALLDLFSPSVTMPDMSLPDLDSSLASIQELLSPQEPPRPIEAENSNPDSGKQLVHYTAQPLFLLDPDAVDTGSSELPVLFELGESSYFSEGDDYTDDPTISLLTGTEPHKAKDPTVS
# [3] = target: T4, Oxysterols receptor LXR-beta (Homo sapiens, UniProt P55055); type: functional, cell-based;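 note: agonist activity at LXR measured by a cell-based luminescence readout across a dose range, run as a counterscreen for daf-12 agonists; HEK293 cells with Gal4-LXR fusion and GAL4-driven luciferase reporter; potency for activation of Gal4-LXR reporter so compounds are agonists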
# T4 sequence (P55055 whole entry): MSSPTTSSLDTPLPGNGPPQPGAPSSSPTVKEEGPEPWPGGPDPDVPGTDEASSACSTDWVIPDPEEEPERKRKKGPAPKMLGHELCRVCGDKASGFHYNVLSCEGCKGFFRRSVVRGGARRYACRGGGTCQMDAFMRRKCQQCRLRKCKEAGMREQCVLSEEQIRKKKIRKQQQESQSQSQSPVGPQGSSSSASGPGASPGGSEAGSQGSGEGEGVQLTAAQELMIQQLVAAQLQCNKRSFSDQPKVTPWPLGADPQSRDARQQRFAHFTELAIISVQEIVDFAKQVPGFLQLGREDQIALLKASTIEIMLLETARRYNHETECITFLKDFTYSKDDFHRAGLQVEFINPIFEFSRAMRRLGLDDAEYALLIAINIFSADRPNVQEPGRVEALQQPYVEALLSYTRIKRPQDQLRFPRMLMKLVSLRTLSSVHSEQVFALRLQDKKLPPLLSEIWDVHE
# [4] = HIV-1 AD8 envelope cell-cell fusion blockers – cherry-pick, dose response (AID 652062); type: functional, cell-based;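 note: luciferase signal from cell-cell fusion driven by HIV-1 clade B AD8 Env; potency is for inhibitors of fusion seen as a drop in luminescence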
# [5] = blockers of HIV-1 ZM109 envelope-driven cell-cell fusion – HeLa effector, CEM target cells, luciferase, cherry-pick, dose response (AID 652058); type: functional, cell-based;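 note: luciferase signal from HIV-1 Env mediated cell-cell fusion of effector and target cells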
# [6] = off-target signal loss in HeLa-CEM21 co-culture – HeLa F-luc CTL cells, cherry-picked, counter-screen for HIV-1 Env fusion inhibitor project, dose response (AID 652040); type: functional, cell-based;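 note: potency for signal decrease marking cytotoxic or nonspecific inhibition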
# [7] = blockers of HIV-1 envelope-mediated cell-cell fusion – cherry-pick, dose response (AID 652057); type: functional, cell-based
# [8] = viability loss in CEM21 cells – cell-based, CellTiter-Glo luminescence, cherry-picked, cytotoxicity control for viral fusion inhibitor project, dose response (AID 652042); type: functional;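 note: potency for signal decrease meaning cytotoxicity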
# Major prion protein = Major prion protein (Homo sapiens, UniProt P04156); type: functional, cell-based
# [9] = cytotoxicity in MITF-independent A375 cells – cell-based, CellTiter-Glo luminescence, dry powder, set 4, counter-screen for MITF inhibitor project, dose response (AID 624364); type: functional; details: A-375;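 note: A375 melanoma cells are MITF independent so this is a counter screen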
# [10] = viability loss in MITF-independent A375 cells – cell-based, CellTiter-Glo luminescence, dry powder, set 2, counter-screen for MITF inhibitor project, dose response (AID 624489); type: functional; details: A-375;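 note: actives are compounds lowering A375 viability meaning general cytotoxicity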
# INS1 = assay: INS-1E survival protection against cytokine death – cell-based, luminescence, retest, dose response (AID 449756); type: functional; details: Rattus norvegicus;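 note: cell death triggered by IL-1 beta plus TNF-alpha plus IFN-gamma mixture; protective hits raise ATP signal compared with cytokine alone wells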
# [11] = target: T5, Methionyl-tRNA synthetase, putative (Trypanosoma brucei brucei, UniProt Q38C91); type: functional, Trypanosoma brucei brucei strain 927/4 GUTat10.1
# T5 sequence (Q38C91 whole entry): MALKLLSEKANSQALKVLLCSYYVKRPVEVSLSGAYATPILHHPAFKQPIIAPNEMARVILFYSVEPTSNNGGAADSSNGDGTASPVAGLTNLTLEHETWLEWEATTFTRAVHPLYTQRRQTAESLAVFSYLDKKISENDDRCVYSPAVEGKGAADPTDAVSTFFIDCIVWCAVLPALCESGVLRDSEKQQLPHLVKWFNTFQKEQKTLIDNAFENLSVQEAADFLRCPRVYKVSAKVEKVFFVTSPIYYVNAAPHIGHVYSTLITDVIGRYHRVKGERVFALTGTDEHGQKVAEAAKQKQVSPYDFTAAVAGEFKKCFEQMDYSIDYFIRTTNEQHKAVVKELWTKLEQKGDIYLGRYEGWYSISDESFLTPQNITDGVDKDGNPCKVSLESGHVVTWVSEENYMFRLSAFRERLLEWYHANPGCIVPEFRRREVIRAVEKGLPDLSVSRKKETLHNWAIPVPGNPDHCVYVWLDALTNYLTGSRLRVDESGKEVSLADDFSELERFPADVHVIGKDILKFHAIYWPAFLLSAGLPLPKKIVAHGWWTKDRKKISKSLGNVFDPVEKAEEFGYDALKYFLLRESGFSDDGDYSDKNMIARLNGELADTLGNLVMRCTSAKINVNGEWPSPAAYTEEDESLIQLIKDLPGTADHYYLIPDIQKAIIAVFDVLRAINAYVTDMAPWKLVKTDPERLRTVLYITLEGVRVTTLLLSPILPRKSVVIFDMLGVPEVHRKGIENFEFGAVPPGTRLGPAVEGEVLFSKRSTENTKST
# [12] = target: T5, Methionyl-tRNA synthetase, putative; type: functional, Trypanosoma brucei brucei strain 927/4 GUTat10.1; remark: listed apart in the source
# [13] = Counterscreen for inhibitors of Trypanosoma brucei methionyl tRNA synthetase (MetRS): Luminescence-based cell-based high throughput dose response assay to identify compounds that are cytotoxic to Jurkat human T lymphocyte cells.; type: functional
# Cytochrome P450 2C9 = Cytochrome P450 2C9 (Homo sapiens, UniProt P11712)
# Cytochrome P450 2C9, sequence (P11712 whole entry): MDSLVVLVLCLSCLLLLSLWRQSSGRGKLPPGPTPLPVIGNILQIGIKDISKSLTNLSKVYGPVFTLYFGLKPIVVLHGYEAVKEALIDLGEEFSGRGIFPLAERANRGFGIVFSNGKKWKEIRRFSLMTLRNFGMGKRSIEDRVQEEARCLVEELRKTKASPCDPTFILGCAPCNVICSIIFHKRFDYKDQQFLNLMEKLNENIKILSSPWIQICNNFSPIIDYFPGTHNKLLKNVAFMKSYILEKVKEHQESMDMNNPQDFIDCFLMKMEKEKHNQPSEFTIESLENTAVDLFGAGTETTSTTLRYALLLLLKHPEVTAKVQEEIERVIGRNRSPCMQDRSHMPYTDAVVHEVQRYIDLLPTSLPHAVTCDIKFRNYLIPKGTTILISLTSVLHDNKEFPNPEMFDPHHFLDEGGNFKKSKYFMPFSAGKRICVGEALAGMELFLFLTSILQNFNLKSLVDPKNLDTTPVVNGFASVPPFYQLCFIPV
structure (smiles),measurement,setting,value
OCCN=C(S)Nc1ccc2nsnc2c1,AC50,[1],10.5 µM (active)
same,EC50,Protein RecA,26 µM (active)
Cc1ccc2oc(-c3cccc(N)c3)nc2c1,EC50,[2],> 260 µM (inconclusive)
same,EC50,[3],> 67.6 µM (inactive)
Cc1ccc(/C=N/NC(=O)c2ccoc2C)s1,EC50,[3],> 67.6 µM (inactive)
CCNS(=O)(=O)c1ccc(CCC(=O)Nc2cc(Cl)ccc2Oc2ccccc2)cc1,AC50,[4],11.6 µM (active)
same,AC50,[5],2.17 µM (active)
same,AC50,[6],12 µM (active)
same,AC50,[7],5.54 µM (active)
same,AC50,[8],40.5 µM (active)
CCOC(=O)CSc1nc(-c2ccccc2)nc2ccccc12,IC50,cells,> 138 µM (inactive)
same,IC50,Major prion protein,1.73 µM (active)
CCN(CC)CCCNC1=C(N(C)C(C)=O)C(=O)c2ccccc2C1=O,AC50,[9],5.33 µM (active)
same,AC50,[10],2.91 µM (active)
CCn1c(-c2ccc(C)cc2)nn(CC(=O)NCCc2ccccc2)c1=S,AC50,[4],6.95 µM (active)
same,AC50,[5],4.85 µM (active)
same,AC50,INS1,5.9 µM (active)
same,AC50,[6],7.04 µM (active)
same,AC50,[7],8.88 µM (active)
same,AC50,[8],51.1 µM (active)
Cc1[nH]c2ccccc2c1C(=O)C(=O)NCCc1ccc(S(N)(=O)=O)cc1,IC50,[11],14.8 µM (inactive)
same,IC50,[12],6.63 µM (active)
same,IC50,[13],83.3 µM (inactive)
CCOC(=O)CSc1nc(COc2ccccc2)nc2ccccc12,IC50,cells,> 138 µM (inactive)
same,IC50,Major prion protein,8.25 µM (active)
CC(=O)NC1=C(c2ccc(Oc3ccccc3)cc2)C(=O)c2ccccc2C1=O,AC50,[9],59 µM (active)
same,AC50,[10],31.2 µM (active)
CC1(C)Cc2ccccc2-c2nc(S)nc(O)c21,IC50,cells,> 138 µM (inactive)
CC1(C)Cc2ccccc2-c2[nH]c(=S)[nH]c(=O)c21,IC50,Major prion protein,4.55 µM (active)
Clc1ccccc1-c1ccc2ncnc(NCc3cccnc3)c2c1,AC50,Cytochrome P450 2C9,0.794 µM (inconclusive)
same,IC50,[11],14.1 µM (inactive)
same,IC50,[12],17.1 µM (inactive)
same,IC50,[13],83.3 µM (inactive)
CC(=O)c1ccc(NC(=O)c2ccc(-n3cncn3)c([N+](=O)[O-])c2)cc1,IC50,[11],7.16 µM (active)
same,IC50,[12],4.12 µM (active)
same,IC50,[13],83.3 µM (inactive)
